“Also recorded” adds a separate entry of the source.
Experiments:
Type in all cases: in vivo, human
[1] = test system: post-menopausal women; assay: Example 2: patients leaving the study
Excerpt: 3. Patients Leaving the Study

[2] = test system: fasting glucose; assay: Example 3: fasting glucose, change from baseline to week 12
[3] = test system: healthy women; assay: Example 2 section G: adverse events after single and 14-day multiple oral doses of Estetrol monohydrate/Drospirenone 15 mg/3 mg and 30 mg/6 mg; details: single dose then once daily for 14 days
Protocol: The following treatments were administered to healthy women (between 15-50 years inclusive) according to the randomization code. • Placebo (n=16); • Group 15 mg: a single oral dose of 15 mg Estetrol monohydrate/3 mg Drospirenone (n=10) followed, after a washout of 14 days, by multiple oral doses of 15 mg Estetrol monohydrate/3 mg Drospirenone (n=10) once daily for 14 days; • Group 30 mg: a single oral dose of 30 mg Estetrol monohydrate/6 mg Drospirenone (n=10), followed, after a washout of 14 days, by multiple oral doses of 30 mg Estetrol monohydrate/6 mg Drospirenone (n=10) once daily for 14 days.
Adverse events were recorded from first admission until completion of the follow-up visit (between 37 to 42 days after first day of treatment).

[4] = test system: post-menopausal women; assay: Example 2 dose-finding study: weekly severity of moderate to severe VMS; details: for LS adjusted mean change from baseline in weekly severity of moderate to severe VMS: week 12, ANCOVA
Excerpt: A severity scoring system to define the different severity categories of VMS is commonly used in the technical field: • a score of mild (1) for a sensation of heat without sweating; • a score of moderate (2) for a sensation of heat with sweating/the subject is able to continue activity; and • a score of severe (3) for a sensation of heat with sweating/which causes cessation of activity.
In addition, a severity score of zero is attributed to the patients who have experienced a 100% VMS relief during a given week. From these score records, the VMS severity at baseline is typically calculated by taking into account only moderate and severe VMS, such that the total number of moderate VMS during the 7 days of the baseline week is multiplied by 2 and added to the total number of severe VMS during the 7 days of the baseline week multiplied by 3. This total is then divided by the total number of moderate and severe VMS during the baseline week.
The severity at weeks 4 and 12 is calculated using the following formula for each of these weeks: • the number of mild VMS during 7 days multiplied by 1; • the number of moderate VMS during 7 days multiplied by 2; • the number of severe VMS during 7 days multiplied by 3; and adding the 3 resulting numbers together before dividing this total by the total number of mild, moderate and severe VMS during the 7 days of the week.
All treatments (Estetrol, hereinafter E4 as monohydrate, [2.5 mg, 5 mg, 10 mg, 15 mg] capsule) were administered once daily (QD) per os for at least 12 consecutive weeks until the last biological assessments (Day 91 maximum) had been performed.
In order to better analyse the data recorded in this study, treatment groups have been compared using an ANCOVA (analysis of covariance) with respect to the change in severity of moderate to severe VMS from baseline to mild, moderate and severe VMS at week 4 and week 12 for each active treatment versus placebo. For women who experienced 100% VMS relief at week 4 and/or week 12, a value of zero was attributed. The ANCOVA model includes treatment (“trt1”) as a fixed effect and baseline (“base”) as a covariate.

[5] = 15 mg Estetrol monohydrate/3 mg Drospirenone
[6] = 30 mg Estetrol monohydrate/6 mg Drospirenone

## C[C@]12CC[C@@H]3c4ccc(O)cc4CC[C@H]3[C@@H]1[C@@H](O)[C@@H](O)[C@@H]2O [E4 monohydrate, estetrol monohydrate]
[1]; 2.5 mg daily
  Number of patients leaving the study: 9
[1]; 5 mg daily
  Number of patients leaving the study: 11
[1]; 10 mg daily
  Number of patients leaving the study: 15
[1]; 15 mg daily
  Number of patients leaving the study: 8
[2]; 15 mg and 20 mg, after 12 weeks, monohydrate
  fasting glucose levels: decreased; also recorded: reduced
[2]; 15 mg, Baseline
  Fasting Glucose, mean: 5.156
[2]; 15 mg, Week 12
  Fasting Glucose, mean: 5.057
[2]; 20 mg, Baseline
  Fasting Glucose, mean: 5.177
[2]; 20 mg, Week 12
  Fasting Glucose, mean: 5.057
[3]; [5]
  TEAEs by relationship to study drug, Related, subjects reporting one or more AE: 50%
  TEAEs by relationship to study drug, Total, subjects reporting one or more AE: 80%
  TEAEs by relationship to study drug, Unrelated, subjects reporting one or more AE: 50%
[3]; [6]
  TEAEs by relationship to study drug, Related, subjects reporting one or more AE: 50%
  TEAEs by relationship to study drug, Total, subjects reporting one or more AE: 70%
  TEAEs by relationship to study drug, Unrelated, subjects reporting one or more AE: 50%
[4]; 2.5 mg QD, week 0
  Mean change from baseline in weekly severity of moderate to severe VMS: 0
  Mean relative change (% from baseline) in weekly severity of moderate to severe VMS: 0%
[4]; 2.5 mg QD, week 1
  Mean relative change (% from baseline) in weekly severity of moderate to severe VMS: −7%
[4]; 2.5 mg QD, week 2
  Mean relative change (% from baseline) in weekly severity of moderate to severe VMS: −9%
[4]; 2.5 mg QD, week 3
  Mean relative change (% from baseline) in weekly severity of moderate to severe VMS: −14%
[4]; 2.5 mg QD, week 4
  Mean relative change (% from baseline) in weekly severity of moderate to severe VMS: −15%
[4]; 2.5 mg QD, week 5
  Mean relative change (% from baseline) in weekly severity of moderate to severe VMS: −17%
[4]; 2.5 mg QD, week 6
  Mean relative change (% from baseline) in weekly severity of moderate to severe VMS: −22%
[4]; 2.5 mg QD, week 7
  Mean relative change (% from baseline) in weekly severity of moderate to severe VMS: −20%
[4]; 2.5 mg QD, week 8
  Mean relative change (% from baseline) in weekly severity of moderate to severe VMS: −24%
[4]; 2.5 mg QD, week 9
  Mean relative change (% from baseline) in weekly severity of moderate to severe VMS: −24%
[4]; 2.5 mg QD, week 10
  Mean relative change (% from baseline) in weekly severity of moderate to severe VMS: −26%
[4]; 2.5 mg QD, week 11
  Mean relative change (% from baseline) in weekly severity of moderate to severe VMS: −25%
[4]; 2.5 mg QD, week 12
  Mean relative change (% from baseline) in weekly severity of moderate to severe VMS: −28%
[4]; 5 mg QD, week 0
  Mean change from baseline in weekly severity of moderate to severe VMS: 0
  Mean relative change (% from baseline) in weekly severity of moderate to severe VMS: 0%
[4]; 5 mg QD, week 1
  Mean relative change (% from baseline) in weekly severity of moderate to severe VMS: −4%
[4]; 5 mg QD, week 2
  Mean relative change (% from baseline) in weekly severity of moderate to severe VMS: −5%
[4]; 5 mg QD, week 3
  Mean relative change (% from baseline) in weekly severity of moderate to severe VMS: −7%
[4]; 5 mg QD, week 4
  Mean relative change (% from baseline) in weekly severity of moderate to severe VMS: −10%
[4]; 5 mg QD, week 5
  Mean relative change (% from baseline) in weekly severity of moderate to severe VMS: −7%
[4]; 5 mg QD, week 6
  Mean relative change (% from baseline) in weekly severity of moderate to severe VMS: −14%
[4]; 5 mg QD, week 7
  Mean relative change (% from baseline) in weekly severity of moderate to severe VMS: −12%
[4]; 5 mg QD, week 8
  Mean relative change (% from baseline) in weekly severity of moderate to severe VMS: −14%
[4]; 5 mg QD, week 9
  Mean relative change (% from baseline) in weekly severity of moderate to severe VMS: −14%
[4]; 5 mg QD, week 10
  Mean relative change (% from baseline) in weekly severity of moderate to severe VMS: −15%
[4]; 5 mg QD, week 11
  Mean relative change (% from baseline) in weekly severity of moderate to severe VMS: −18%
[4]; 5 mg QD, week 12
  Mean relative change (% from baseline) in weekly severity of moderate to severe VMS: −17%
[4]; 10 mg QD, week 0
  Mean change from baseline in weekly severity of moderate to severe VMS: 0
  Mean relative change (% from baseline) in weekly severity of moderate to severe VMS: 0%
[4]; 10 mg QD, week 1
  Mean relative change (% from baseline) in weekly severity of moderate to severe VMS: −8%
[4]; 10 mg QD, week 2
  Mean relative change (% from baseline) in weekly severity of moderate to severe VMS: −13%
[4]; 10 mg QD, week 3
  Mean relative change (% from baseline) in weekly severity of moderate to severe VMS: −17%
[4]; 10 mg QD, week 5
  Mean relative change (% from baseline) in weekly severity of moderate to severe VMS: −21%
[4]; 10 mg QD, week 6
  Mean relative change (% from baseline) in weekly severity of moderate to severe VMS: −26%
[4]; 10 mg QD, week 7
  Mean relative change (% from baseline) in weekly severity of moderate to severe VMS: −27%
[4]; 10 mg QD, week 8
  Mean relative change (% from baseline) in weekly severity of moderate to severe VMS: −28%
[4]; 10 mg QD, week 9
  Mean relative change (% from baseline) in weekly severity of moderate to severe VMS: −28%
[4]; 10 mg QD, week 10
  Mean relative change (% from baseline) in weekly severity of moderate to severe VMS: −29%
[4]; 10 mg QD, week 11
  Mean relative change (% from baseline) in weekly severity of moderate to severe VMS: −25%
[4]; 10 mg QD, week 12
  Mean relative change (% from baseline) in weekly severity of moderate to severe VMS: −28%
[4]; 10 mg QD
  LS adjusted mean change from baseline in weekly severity of moderate to severe VMS: −0.6934
[4]; 15 mg QD, week 0
  Mean change from baseline in weekly severity of moderate to severe VMS: 0
  Mean relative change (% from baseline) in weekly severity of moderate to severe VMS: 0%
[4]; 15 mg QD, week 1
  Mean relative change (% from baseline) in weekly severity of moderate to severe VMS: −3%
[4]; 15 mg QD, week 2
  Mean relative change (% from baseline) in weekly severity of moderate to severe VMS: −12%
[4]; 15 mg QD, week 3
  Mean relative change (% from baseline) in weekly severity of moderate to severe VMS: −20%
[4]; 15 mg QD, week 4
  Mean relative change (% from baseline) in weekly severity of moderate to severe VMS: −24%
[4]; 15 mg QD, week 5
  Mean relative change (% from baseline) in weekly severity of moderate to severe VMS: −31%
[4]; 15 mg QD, week 6
  Mean relative change (% from baseline) in weekly severity of moderate to severe VMS: −30%
[4]; 15 mg QD, week 7
  Mean relative change (% from baseline) in weekly severity of moderate to severe VMS: −34%
[4]; 15 mg QD, week 8
  Mean relative change (% from baseline) in weekly severity of moderate to severe VMS: −37%
[4]; 15 mg QD, week 9
  Mean relative change (% from baseline) in weekly severity of moderate to severe VMS: −38%
[4]; 15 mg QD, week 10
  Mean relative change (% from baseline) in weekly severity of moderate to severe VMS: −40%
[4]; 15 mg QD, week 11
  Mean relative change (% from baseline) in weekly severity of moderate to severe VMS: −42%
[4]; 15 mg QD, week 12
  Mean relative change (% from baseline) in weekly severity of moderate to severe VMS: −44%
[4]; 15 mg QD
  LS adjusted mean change from baseline in weekly severity of moderate to severe VMS: −1.042

From patent publication US20260207623A1, “USE OF ESTETROL IN HEPATICALLY IMPAIRED PATIENTS” (ESTETRA SRL, priority 2022, published 2026)
